The values below come from patent publication US20080293696A1, “2-Aminoarylcarboxamides Useful as Cancer Chemotherapeutic Agents” (Bayer Pharmaceuticals Corporation, priority 2004, published 2008).

In this test the test system is PAKT/PKB (p-(S473) AKT) in H209 small cell lung carcinoma cells stimulated with Stem Cell Factor. The test is described as follows: PAKT/PKB Cytoblot Assay with H209 cells (SCF-stimulated p-(S473) AKT). The test is classed as cell-based. Particulars: Homo sapiens, NCI-H209, compound 1 hour, SCF 25 ng/mL 5 minutes. The gist of the method:
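H209 SCLC cells kept overnight in RPMI with 0.1% BSA were pretreated 1 h at 37 °C with compound (0.01–10 μM final), then stimulated with SCF 25 ng/mL for 5 min. After formaldehyde/methanol fixation, p-(S473) AKT was detected in-cell with HRP secondary and ECL chemiluminescence, and IC50 was derived.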

[1] abbreviates: group: between 500 nM and 1 μM (units in value).

Counter-ions that a name gives are not always drawn.

Take `COCCCNc1cc(CNc2ccccc2C(=O)Nc2ccc3c(c2)OC(F)(F)O3)ccn1` [Example 136, N-(2,2-difluoro-1,3-benzodioxol-5-yl)-2-[({2-[(3-methoxypropyl)amino]pyridin-4-yl}methyl)amino]benzamide trifluoroacetate]: the half-maximal inhibitory concentration (IC50) (in general, the concentration that gives 50% inhibition) (group: less than 500 nM) was under 500 nM. On to `O=C(Nc1ccc2c(c1)OC(F)(F)O2)c1ccccc1NCc1ccnc(NCCCO)c1` [Example 137, N-(2,2-difluoro-1,3-benzodioxol-5-yl)-2-[({2-[(3-hydroxypropyl)amino]pyridin-4-yl}methyl)amino]benzamide trifluoroacetate(salt)], for which the IC50 (group: less than 500 nM) is under 500 nM. Same read-out and setting: next, `O=C(Nc1ccc2c(c1)OC(F)(F)O2)c1ccccc1NCc1ccnc(NCCOCCO)c1` [Example 138, N-(2,2-difluoro-1,3-benzodioxol-5-yl)-2-{[(2-{[2-(2-hydroxyethoxy)ethyl]amino}pyridin-4-yl)methyl]amino}benzamide trifluoroacetate(salt)]: under 500 nM; `CNc1cc(CNc2ccccc2C(=O)Nc2ccc3c(c2)OC(F)(F)O3)ccn1` [Example 139, N-(2,2-difluoro-1,3-benzodioxol-5-yl)-2-({[2-(methylamino)pyridin-4-yl]methyl}amino)benzamide trifluoroacetate]: under 500 nM; `CC(C)OCCCNc1cc(CNc2ccccc2C(=O)Nc2ccc3c(c2)OC(F)(F)O3)ccn1` [Example 140, N-(2,2-difluoro-1,3-benzodioxol-5-yl)-2-[({2-[(3-isopropoxypropyl)amino]pyridin-4-yl}methyl)amino]benzamide trifluoroacetate]: under 500 nM. On the same count and under the same terms, as for `CC(C)(CO)CNc1cc(CNc2ccccc2C(=O)Nc2ccc3c(c2)OC(F)(F)O3)ccn1` [Example 141, N-(2,2-difluoro-1,3-benzodioxol-5-yl)-2-[({2-[(3-hydroxy-2,2-dimethylpropyl)amino]pyridin-4-yl}methyl)amino]benzamide trifluoroacetate(salt)], the figure is under 500 nM. Compound `NCC(O)CNc1cc(CNc2ccccc2C(=O)Nc2ccc3c(c2)OC(F)(F)O3)ccn1` (stereo not drawn) [Example 142, 2-[({2-[(3-amino-2-hydroxypropyl)amino]pyridin-4-yl}methyl)amino]-N-(2,2-difluoro-1,3-benzodioxol-5-yl)benzamidebis(trifluoroacetate)(salt)] showed a half-maximal inhibitory concentration (IC50) under setting [1] of 500 to 1000 nM.

Compound `CN(C)CCCNc1cc(CNc2ccccc2C(=O)Nc2ccc3c(c2)OC(F)(F)O3)ccn1` [Example 143, N-(2,2-difluoro-1,3-benzodioxol-5-yl)-2-{[(2-{[3-(dimethylamino)propyl]amino}pyridin-4-yl)methyl]amino}benzamidebis(trifluoroacetate)] had a half-maximal inhibitory concentration (IC50) (group: less than 500 nM) of under 500 nM.

In turn, `O=C(Nc1ccc2c(c1)OC(F)(F)O2)c1ccccc1NCc1ccnc(NCCCN2CCOCC2)c1` [Example 144, N-(2,2-difluoro-1,3-benzodioxol-5-yl)-2-[({2-[(3-morpholin-4-ylpropyl)amino]pyridin-4-yl}methyl)amino]benzamidebis(trifluoroacetate)] had an IC50 (group: less than 500 nM) of under 500 nM.

For the compound `CN1CCCC1CCNc1cc(CNc2ccccc2C(=O)Nc2ccc3c(c2)OC(F)(F)O3)ccn1` (stereo not drawn) [Example 145, N-(2,2-difluoro-1,3-benzodioxol-5-yl)-2-{[(2-{[2-(1-methylpyrrolidin-2-yl)ethyl]amino}pyridin-4-yl)methyl]amino}benzamidebis(trifluoroacetate)], the half-inhibitory concentration (IC50) (group: less than 500 nM) was under 500 nM. The same measure, in the same setting: as for `O=C(Nc1ccc2c(c1)OC(F)(F)O2)c1ccccc1NCc1ccnc(NCCCn2ccnc2)c1` [Example 146, N-(2,2-difluoro-1,3-benzodioxol-5-yl)-2-{[(2-{[3-(1H-imidazol-1-yl)propyl]amino}pyridin-4-yl)methyl]amino}benzamidebis(trifluoroacetate)], the figure is under 500 nM; as for `O=C(Nc1ccc2c(c1)OC(F)(F)O2)c1ccccc1NCc1ccnc(NCCc2c[nH]cn2)c1` [Example 147, N-(2,2-difluoro-1,3-benzodioxol-5-yl)-2-{[(2-{[2-(1H-imidazol-4-yl)ethyl]amino}pyridin-4-yl)methyl]amino}benzamidebis(trifluoroacetate)], under 500 nM.

The compound `O=C(Nc1ccc2c(c1)OC(F)(F)O2)c1ccccc1NCc1ccnc(NCC2CCCO2)c1` (stereo not drawn) [Example 148, N-(2,2-difluoro-1,3-benzodioxol-5-yl)-2-[({2-[(tetrahydrofuran-2-ylmethyl)amino]pyridin-4-yl}methyl)amino]benzamide trifluoroacetate] came in with an IC50 (group: less than 500 nM) of under 500 nM. `O=C(Nc1ccc2c(c1)OC(F)(F)O2)c1ccccc1NCc1ccnc(NCC(O)CO)c1` (stereo not drawn) [Example 149, N-(2,2-difluoro-1,3-benzodioxol-5-yl)-2-[({2-[(2,3-dihydroxypropyl)amino]pyridin-4-yl}methyl)amino]benzamidetrifluoroacetate (salt)] returned a 50% inhibitory concentration (IC50) (group: less than 500 nM) of under 500 nM.

For the compound `O=C(Nc1ccc2c(c1)OC(F)(F)O2)c1ccccc1NCc1ccnc(NCCc2ccccc2)c1` [Example 150, N-(2,2-difluoro-1,3-benzodioxol-5-yl)-2-[({2-[(2-phenylethyl)amino]pyridin-4-yl}methyl)amino]benzamidetrifluoroacetate], the IC50 under setting [1] fell in the range of 500 to 1000 nM.

As for `COC(C)C(=O)Nc1cc(CNc2ccccc2C(=O)Nc2ccc3c(c2)OC(F)(F)O3)ccn1` (stereo not drawn) [Example 151, N-(2,2-difluoro-1,3-benzodioxol-5-yl)-2-[({2-[(2-methoxypropanoyl)amino]pyridin-4yl}methyl)amino]benzamide], the IC50 (group: less than 500 nM) was under 500 nM. Consider `CC(=O)Nc1cc(CNc2ccccc2C(=O)Nc2ccc3c(c2)OC(F)(F)O3)ccn1` [Example 152, 2-({[2-(acetylamino)pyridin-4-yl]methyl}amino)-N-(2,2-difluoro-1,3-benzodioxol-5-yl)benzamide], for which the IC50 (group: less than 500 nM) was under 500 nM.

Under “group: less than 500 nM”, `Nc1cc(CNc2ccccc2C(=O)Nc2ccc3c(c2)OC(F)(F)O3)ccn1` [Example 153, 2-{[(2-aminopyridin-4-yl)methyl]amino}-N-(2,2-difluoro-1,3-benzodioxol-5-yl)benzamide] came in with a 50% inhibitory concentration (IC50) of under 500 nM.

With `COCCOCC(=O)Nc1cc(CNc2ccccc2C(=O)Nc2ccc3c(c2)OC(F)(F)O3)ccn1` [Example 154, N-(2,2-difluoro-1,3-benzodioxol-5-yl)-2-{[(2{[(2-methoxyethoxy)acetyl]amino}pyridin-4-yl)methyl]amino}benzamide], the IC50 under setting [1] was in the range of 500 to 1000 nM.

`COCC(=O)Nc1cc(CNc2ccccc2C(=O)Nc2ccc3c(c2)OC(F)(F)O3)ccn1` [Example 155, N-(2,2-difluoro-1,3-benzodioxol-5-yl)-2-[({2-[(methoxyacetyl)amino]pyridin-4-yl}methyl)amino]benzamide]: under “group: less than 500 nM”, the half-inhibitory concentration (IC50) is under 500 nM.

As for `CC(=O)OCC(=O)Nc1cc(CNc2ccccc2C(=O)Nc2ccc3c(c2)OC(F)(F)O3)ccn1` [Example 156, 2-[(4-{[(2-{[(2,2-difluoro-1,3-benzodioxol-5-yl)amino]carbonyl}phenyl)amino]methyl}pyridin-2-yl)aminol-2-oxoethyl acetate], the half-maximal inhibitory concentration (IC50) (group: less than 500 nM) was under 500 nM. `COC(=O)COCC(=O)Nc1cc(CNc2ccccc2C(=O)Nc2ccc3c(c2)OC(F)(F)O3)ccn1` [Example 157]: the IC50 (group: less than 500 nM) is under 500 nM.

Compound `CCOC(=O)CCC(=O)N(C(=O)CCC(=O)OCC)c1cc(CNc2ccccc2C(=O)Nc2ccc3c(c2)OC(F)(F)O3)ccn1` [Example 158, diethyl 4,4′-[(4-{[(2-{[(2,2-difluoro-1,3-benzodioxol-5-yl)amino]carbonyl}phenyl)amino]methyl}pyridin-2-yl)imino]bis(4-oxobutanoate)] gave an IC50 (group: less than 500 nM) of under 500 nM.

For the setting “group: less than 500 nM”, `COC(C)(C)C(=O)Nc1cc(CNc2ccccc2C(=O)Nc2ccc3c(c2)OC(F)(F)O3)ccn1` [Example 159, N-(2,2-difluoro-1,3-benzodioxol-5-yl)-2-[({2-[(2-methoxy-2-methylpropanoyl)amino]pyridin-4-yl}methyl)amino]benzamide] returned a concentration for half-maximal inhibition (IC50) of under 500 nM. For `CCNC(=O)Nc1cc(CNc2ccccc2C(=O)Nc2ccc3c(c2)OC(F)(F)O3)ccn1` [Example 162, N-(2,2-difluoro-1,3-benzodioxol-5-yl)-2-{[(2-{[(ethylamino)carbonyl]amino}pyridin-4-yl)methyl]amino}benzamide], the half-maximal inhibitory concentration (IC50) (group: less than 500 nM) was under 500 nM. Consider `COc1ccc(NC(=O)Nc2cc(CNc3ccccc3C(=O)Nc3ccc4c(c3)OC(F)(F)O4)ccn2)cc1` [Example 163, N-(2,2-difluoro-1,3-benzodioxol-5-yl)-2-({[2-({[(4-methoxyphenyl)amino]carbonyl}amino)pyridin-4-yl]methyl}amino)benzamide], for which the IC50 under setting [1] fell in the range of 500 to 1000 nM. Under “group: less than 500 nM”, `CNC(=O)Nc1cc(CNc2ccccc2C(=O)Nc2ccc3c(c2)OC(F)(F)O3)ccn1` [Example 165, N-(2,2-difluoro-1,3-benzodioxol-5-yl)-2-{[(2-{[(methylamino)carbonyl]amino}pyridin-4-yl)methyl]amino}benzamide] returned a half-maximal inhibitory concentration (IC50) of under 500 nM.

For the setting “group: between 1 and 3 μM”, `N#Cc1cccc(NC(=O)Nc2cc(CNc3ccccc3C(=O)Nc3ccc4c(c3)OC(F)(F)O4)ccn2)c1` [Example 166, 2-({[2-({[(3-cyanophenyl)amino]carbonyl}amino)pyridin-4-yl]methyl}amino)-N-(2,2-difluoro-1,3-benzodioxol-5-yl)benzamide] came in with an IC50 of 1000 to 3000 nM. For the compound `COc1cccc(NC(=O)Nc2cc(CNc3ccccc3C(=O)Nc3ccc4c(c3)OC(F)(F)O4)ccn2)c1` [Example 167, N-(2,2-difluoro-1,3-benzodioxol-5-yl)-2-({[2-({[(3-methoxyphenyl)amino]carbonyl}amino)pyridin-4-yl]methyl}amino)benzamide], the IC50 (group: between 1 and 3 μM) lay within 1000 to 3000 nM. `CCCNC(=O)Nc1cc(CNc2ccccc2C(=O)Nc2ccc3c(c2)OC(F)(F)O3)ccn1` [Example 169, N-(2,2-difluoro-1,3-benzodioxol-5-yl)-2-{[(2-{[(propylamino)carbonyl]amino}pyridin-4-yl)methyl]amino}benzamide] gave an IC50 (group: less than 500 nM) of under 500 nM.
